For data set [1] the following is noted: in the long run (Kramer et al.); cited from earlier work.
The conditions of data set [2]: rat brain (Golovko and Murphy 2006); cited from earlier work.
Data set [3] in a line: CSF fatty acid analysis (passage of the blood-brain barrier). The format is in vivo, human. The following applies: humans, given as LO+CLA. Here is the method:
At baseline and during the 3rd visit, aliquots of cerebrospinal fluid (CSF) were collected by lumbar puncture in all patients. Blood and CSF samples were centrifuged and stored at −80° C., until analyses.
The CSF samples were analysed for fatty acid composition, in order to verify whether CLA and erucic acid are able to pass, and to what extent, the blood-brain barrier.
Total lipids were extracted from plasma or CSF using chloroform/methanol 2:1 (v/v) (Folch J, Lees M, Sloane-Stanley GH. A simple method for the isolation and purification of total lipid from animal tissues. J. Biol. Chem. 1957; 226: 497-509). Separation of phospholipids from total lipids was performed as previously reported (Banni S, Carta G, Angioni E, Murru E, Scanu P, Melis MP, et al. Distribution of conjugated linoleic acid and metabolites in different lipid fractions in the rat liver. J Lipid Res 2001; 42: 1056-1061.). […]
Since saturated fatty acids are transparent to UV, they were measured, after methylation, by means of a gas chromatograph (Agilent, Model 6890, Palo Alto, Calif.) equipped with split ratio of 20:1 injection port, a flame ionization detector (FID), an autosampler (Agilent, Model 7673), a 100 m HP-88 fused capillary column (Agilent), and an Agilent ChemStation software system. […]

For data set [4] the following is noted: animal models, incorporated in the brain (Fa 2005); cited from earlier work.

Like-named read-outs stand apart in the source and are kept apart here.

In the case of `CCCCCCCC/C=C\CCCCCCCCCCCC(=O)O` [erucic acid], the myocardial lipidosis entry in data set [1] is on record as “cause in the long run myocardial lipidosis”. Besides, the “passage through the blood-brain barrier” value in data set [2] is on record as “hardly passes through the blood-brain barrier”.

As for conjugated linoleic acid [CLA], in data set [3], the “passage of CLA through the blood-brain barrier” value is “prompt entry of CLA through the blood-brain barrier in humans”. In addition, the “passage through the blood-brain barrier” value in data set [4] was “capable of passing through the blood-brain barrier”.

Source of the values: US20110306664A1, “MEDICAL DIETARY COMPOSITION FOR TREATING NEURODEGENERATIVE DISEASES” (SOFEDUS S.R.L., priority 2008, published 2011).
